Here are results for 19 molecules from US20180099937A1, “NOVEL ARYL-CYANOGUANIDINE COMPOUNDS” (Bayer Pharma Aktiengesellschaft, priority 2015, published 2018).

The target of this assay is SMYD2 (Homo sapiens, UniProt Q9NRG4). As to the kind of experiment: Scintillation Proximity Assay (SPA) for detection of SMYD2 enzymatic inhibition. As to conditions: SMYD2 full length enzyme, p53 Peptide substrate 1.0 μM, 3H-SAM 60 nM; read-out: IC50 [mol/l] (SPA Assay). In kind it is biochemical. More on the design: The SMYD2 full length enzyme was produced in-house by expression (with an N-terminal 6× His tag) in E. coli; 6xHis (N); made in house; host or cells: E. coli. An excerpt: 1.1 Scintillation Proximity Assay (SPA) for Detection of SMYD2 Enzymatic Inhibition
Chain of SMYD2 (Q9NRG4 whole entry): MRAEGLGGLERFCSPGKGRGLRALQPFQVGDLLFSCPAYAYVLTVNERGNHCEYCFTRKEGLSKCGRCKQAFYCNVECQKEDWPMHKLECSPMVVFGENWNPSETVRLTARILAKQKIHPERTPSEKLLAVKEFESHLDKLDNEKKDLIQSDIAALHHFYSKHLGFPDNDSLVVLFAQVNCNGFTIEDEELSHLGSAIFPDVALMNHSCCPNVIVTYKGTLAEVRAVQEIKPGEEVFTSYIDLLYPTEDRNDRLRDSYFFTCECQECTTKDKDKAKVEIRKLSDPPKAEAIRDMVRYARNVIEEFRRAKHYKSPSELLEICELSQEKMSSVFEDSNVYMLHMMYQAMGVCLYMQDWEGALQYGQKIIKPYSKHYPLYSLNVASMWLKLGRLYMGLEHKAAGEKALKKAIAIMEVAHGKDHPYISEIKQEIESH
SMYD2 inhibitory activities of the compounds described in the present invention were quantified using a scintillation proximity assay (SPA) which measures methylation by the enzyme of the synthetic, biotinylated peptide Btn-Ahx-[…]—Amid×TFA (Biosyntan) derived from p53 and referred to from here on as “p53 Peptide”. The SMYD2 full length enzyme was produced in-house by expression (with an N-terminal 6× His tag) in E. coli and purification by affinity chromatography on a Ni-NTA Sepharose column followed by a size exclusion chromatography step on a Superdex 200 16/60 column (GE Healthcare).
In a typical assay 11 different concentrations of each compound (0.1 nM, 0.33 nM, 1.1 nM, 3.8 nM, 13 nM, 44 nM, 0.15 μM, 0.51 μM, 1.7 μM, 5.9 μM and 20 μM) were tested in duplicate within the same microtiter plate. To this end, 100-fold concentrated compound solutions (in DMSO) were previously prepared by serial dilution (1:3.4) of 2 mM stocks in a clear low volume 384-well source microliter plate (Greiner Bio-One), from which 50 nl of compound solutions were transferred into a white low volume test microtiter plate from the same supplier. Subsequently, 2.5 μl SMYD2 in aqueous assay buffer [50 mM Tris/HCl pH 9.0 (AppliChem), 1 mM dithiothreitol (DTT, Sigma), 0.01% (w/v) bovine serum albumine (BSA, Sigma), 0.0022% (v/v) Pluronic (Sigma)] were added to the compounds in the test plate to a final enzyme concentration of —typically—3 nM (this parameter was adjusted depending on the activity of the enzyme lot in order to be within the linear dynamic range of the assay). The samples were then incubated for 15 min at 22° C. to allow pre-equilibration of the putative enzyme-inhibitor complexes before the start of the methylation reaction, which was initiated by the addition of 2.5 μl 2-fold concentrated solution (in assay buffer) of titriated S-Adenosyl-L-Methionine (3H-SAM, Perkin Elmer, final concentration: 60 nM) and p53 Peptide substrate (final concentration: 1.0 μM). The resulting mixture (5 μl final volume) was shortly centrifuged (2 min., 1500 rpm) and incubated at 22° C. during 30 min. Thereupon the reaction was stopped by adding 3 μl of Streptavidin PS SPA imaging beads (Perkin Elmer, final concentration of 3.12 μg/μl) and “cold” SAM (AK Scientific, 25 μM final concentration) for non-specific binding reduction. Plates containing the stopped reaction were sealed with transparent adhesive foil (Perkin Elmer), centrifuged (2 min., 1500 rpm), and further incubated for —at least—1 h at RT (or overnight at 4° C.) in order to allow the SPA signals to develop. Subsequently, the amount of product was evaluated by measuring the energy transfer from the β-particles emitted by the 3H-labeled substrate to the Europium scintillator co-polymerized in the polystyrene matrix of the PS imaging beads, using the standard settings for this purpose of a Viewlux (Perkin-Elmer) CCD plate imaging device (emission filter 613/55 (IFP). The resulting scintillation counts were taken as indicator for the amount of methylated peptide per well. The data were normalised using two sets of control wells (typically 16 each) for high−(=enzyme reaction with DMSO instead of test compound=0% =Minimum inhibition) and low−(=all assay components without enzyme=100% =Maximum inhibition) SMYD2 activity. IC50 values were calculated by fitting the normalized inhibition data to a 4-parameter logistic equation using the “Screener” analysis software from Genedata.
(Scintillation proximity formats need no separation of bound from free tracer.)

On to `C[C@]1(C(=O)NC2CN(/C(=N\C#N)Nc3cccc(OC(F)F)c3)N=C2c2ccc(Cl)c(Cl)c2)CCCN1` (single isomer, unassigned) [Example 6.1, N-[1-{N′-Cyano-N-[3-(difluoromethoxy)phenyl]carbamimidoyl}-3-(3,4-dichlorophenyl)-4,5-dihydro-1H-pyrazol-1-yl]-2-methyl-D-prolinamide], for which the IC50 is 12 nM.

Turning to `C[C@]1(C(=O)NC2CN(/C(=N\C#N)Nc3cccc(OC(F)F)c3)N=C2c2ccc(Cl)c(Cl)c2)CCCN1` (single isomer, unassigned) [Example 6.2, N-[1-{N′-Cyano-N-[3-(difluoromethoxy)phenyl]carbamimidoyl}-3-(3,4-dichlorophenyl)-4,5-dihydro-1H-pyrazol-4-yl]-2-methyl-D-prolinamide], the IC50 turned out to be 237 nM.

`CCN(C(=O)[C@H]1CCCN1)C1CN(/C(=N\C#N)Nc2cccc(OC(F)F)c2F)N=C1c1ccc(Cl)c(Cl)c1` (single isomer, unassigned) [Example 13.2, N-[1-{N′-Cyano-N-[3-(difluoromethoxy)-2-fluorophenyl]carbamimidoyl}-3-(3,4-dichlorophenyl)-4,5-dihydro-1H-pyrazol-4-yl]-N-ethyl-D-prolinamide]: the IC50 is 268 nM.

Consider `CCN(C(=O)[C@H]1CCCN1)C1CN(/C(=N\C#N)Nc2cccc(OC(F)(F)F)c2)N=C1c1ccc(Cl)c(Cl)c1` (single isomer, unassigned) [Example 17.1, N-[1-{N′-Cyano-N-[3-(trifluoromethoxy)phenyl]carbamimidoyl}-3-(3,4-dichlorophenyl)-4,5-dihydro-1H-pyrazol-4-yl]-N-ethyl-D-prolinamide], for which the IC50 was found to be 21 nM.

With `CCN(C(=O)[C@H]1CCCN1)C1CN(/C(=N\C#N)Nc2cccc(OC(F)(F)F)c2)N=C1c1ccc(Cl)c(Cl)c1` (single isomer, unassigned) [Example 17.2, N-[1-{N′-Cyano-N-[3-(trifluoromethoxy)phenyl]carbamimidoyl}-3-(3,4-dichlorophenyl)-4,5-dihydro-1H-pyrazol-4-yl]-N-ethyl-D-prolinamide], the IC50 is 1380 nM.

With `CCN(C(=O)[C@H]1CCCN1)C1CN(/C(=N\C#N)Nc2ccc(F)c(OC(F)(F)F)c2)N=C1c1ccc(Cl)c(Cl)c1` (single isomer, unassigned) [Example 22.2, N-[1-{N′-Cyano-N-[4-fluoro-3-(trifluoromethoxy)phenyl]carbamimidoyl}-3-(3,4-dichlorophenyl)-4,5-dihydro-1H-pyrazol-4-yl]-N-ethyl-D-prolinamide], the IC50 was determined as 296 nM.

Turning to `CCN(C(=O)[C@H]1CCCN1)C1CN(/C(=N\C#N)Nc2cc(F)cc(OC(F)(F)F)c2)N=C1c1ccc(Cl)c(Cl)c1` (single isomer, unassigned) [Example 24.2, N-[1-{N′-Cyano-N-[3-fluoro-5-(trifluoromethoxy)phenyl]carbamimidoyl}-3-(3,4-diehlorophenyl)-4,5-dihydro-1H-pyrazol-4-yl]-N-ethyl-D-prolinamide], the IC50 worked out at 3950 nM.

On to `CCN(C(=O)[C@H]1C[C@@H](F)CN1)C1CN(/C(=N\C#N)Nc2cc(F)cc(OC(F)(F)F)c2)N=C1c1ccc(Cl)c(Cl)c1` (single isomer, unassigned) [Example 25.1], for which the IC50 came out at 248 nM.

As for `CCN(C(=O)[C@H]1C[C@@H](F)CN1)C1CN(/C(=N\C#N)Nc2cc(F)cc(OC(F)(F)F)c2)N=C1c1ccc(Cl)c(Cl)c1` (single isomer, unassigned) [Example 25.2], the IC50 was greater than 20000 nM.

In the case of `CCN(C(=O)[C@H]1CCCN1)C1CN(/C(=N\C#N)Nc2cc(C(F)(F)F)ccc2OC(F)(F)F)N=C1c1ccc(Cl)c(Cl)c1` (single isomer, unassigned) [Example 30.1, N-[1-{N′-Cyano-N-[2-(trifluoromethoxy)-5-(trifluoromethyl)phenyl]carbamimidoyl}-3-(3,4-dichlorophenyl)-4,5-dihydro-1H-pyrazol-4-yl]-N-ethyl-D-prolinamide], the IC50 came out at 54.5 nM.

For the molecule `CCN(C(=O)[C@H]1CCCN1)C1CN(/C(=N\C#N)Nc2cc(C(F)(F)F)ccc2OC(F)(F)F)N=C1c1ccc(Cl)c(Cl)c1` (single isomer, unassigned) [Example 30.2, N-[1-{N′-Cyano-N-[2-(trifluoromethoxy)-5-(trifluoromethyl)phenyl]carbamimidoyl}-3-(3,4-dichlorophenyl)-4,5-dihydro-1H-pyrazol-4-yl]-N-ethyl-D-prolinamide], the IC50 amounted to 1540 nM.

Take `CCN(C(=O)[C@H]1CCCN1)C1CN(/C(=N\C#N)Nc2cccc(CC(F)(F)F)c2)N=C1c1ccc(Cl)c(Cl)c1` (single isomer, unassigned) [Example 31.1, N-[1-{N′-Cyano-N-[3-(2,2,2-trifluoroethyl)phenyl]carbamimidoyl}-3-(3,4-dichlorophenyl)-4,5-dihydro-1H-pyrazol-4-yl]-N-ethyl-D-prolinamide]: the IC50 was 33.6 nM.

`CCN(C(=O)[C@H]1CCCN1)C1CN(/C(=N\C#N)Nc2cccc(CC(F)(F)F)c2)N=C1c1ccc(Cl)c(Cl)c1` (single isomer, unassigned) [Example 31.2, N-[1-{N′-Cyano-N-[3-(2,2,2-trifluoroethyl)phenyl]carbamimidoyl}-3-(3,4-dichlorophenyl)-4,5-dihydro-1H-pyrazol-4-yl]-N-ethyl-D-prolinamide]: the IC50 came out at 211 nM.

In the case of `CCN(C(=O)[C@H]1CCN1)C1CN(/C(=N\C#N)Nc2cccc(OC(F)F)c2)N=C1c1ccc(Cl)c(C)c1` (single isomer, unassigned) [Example 36.2], the IC50 is 302 nM.

Regarding `CCN(C(=O)[C@H]1CCCN1)C1CN(/C(=N\C#N)Nc2cccc(OC(F)F)c2)N=C1c1ccc(Cl)c(C)c1` (single isomer, unassigned) [Example 37.2, N-[3-(4-Chloro-3-methylphenyl)-1-{N′-cyano-N-[3-(difluoromethoxy)phenyl]carbamimidoyl}-4,5-dihydro-1H-pyrazol-4-yl]-N-ethyl-D-prolinamide], the IC50 was greater than 20000 nM.

As to `CCN(C(=O)[C@H]1C[C@@H](F)CN1)C1CN(/C(=N\C#N)Nc2cccc(OC(F)F)c2)N=C1c1ccc(Cl)c(C)c1` (single isomer, unassigned) [Example 38.2], the IC50 was roughly 20000 nM.

Take `CCN(C(=O)[C@H]1C[C@@H](O)CN1)C1CN(/C(=N\C#N)Nc2cccc(OC(F)F)c2)N=C1c1ccc(Cl)c(C)c1` (single isomer, unassigned) [Example 39.1]: the IC50 came out at 32.2 nM.

`CCN(C(=O)[C@H]1C[C@@H](O)CN1)C1CN(/C(=N\C#N)Nc2cccc(OC(F)F)c2)N=C1c1ccc(Cl)c(C)c1` (single isomer, unassigned) [Example 39.2]: the IC50 came to 1640 nM.

For the molecule “(2R)-N-[3-(4-chlaro-3-methylphenyl)-1-{N′-cyano-N-[3-(difluoromethoxy)phenyl]carbamimidoyl}-4,5-dihydro-1H-pyrazol-4-yl]-N-ethylpiperidine-2-carboxamide [Example 46]”, the IC50 was 1500 nM.
